In this assay the target is 5-HT2AR (Homo sapiens, UniProt P28223). Nature of the assay: 5-HT2AR radioligand binding assay.
Chain of 5-HT2AR (P28223 whole entry): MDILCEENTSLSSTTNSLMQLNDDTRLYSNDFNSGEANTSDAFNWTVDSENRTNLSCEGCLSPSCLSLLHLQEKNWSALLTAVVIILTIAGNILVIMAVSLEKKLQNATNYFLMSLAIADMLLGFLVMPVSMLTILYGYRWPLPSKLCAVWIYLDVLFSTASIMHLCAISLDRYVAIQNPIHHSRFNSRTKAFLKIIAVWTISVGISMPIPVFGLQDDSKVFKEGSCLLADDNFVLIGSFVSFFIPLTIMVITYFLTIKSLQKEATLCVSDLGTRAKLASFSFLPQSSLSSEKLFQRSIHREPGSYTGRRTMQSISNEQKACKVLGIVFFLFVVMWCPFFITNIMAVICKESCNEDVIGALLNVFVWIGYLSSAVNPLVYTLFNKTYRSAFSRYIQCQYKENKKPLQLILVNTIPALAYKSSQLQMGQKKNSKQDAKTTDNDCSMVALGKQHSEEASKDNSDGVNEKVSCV
With `CCCc1cc(OC)c(CCN)cc1OC` [Compd 1, 2,5-dimethoxy-4-propyl-benzeneethanamine], the affinity corresponds to a Ki of 3.47 nM.

For the molecule `COc1cc(CCNCc2ccccc2F)c(OC)cc1Cl` [Compd 11, 4-chloro-N-[(2-fluorophenyl)methyl]-2,5-dimethoxy-benzeneethanamine], the affinity corresponds to a Ki of 10.8 nM.

As to `CCCN(CC)CCc1c[nH]c2ccc(OC)cc12` [Compd 20, 5-methoxy -N-ethyl-N-propyl tryptamine], affinity was put at a Ki of 122 nM.

Consider `CCc1cc(OC)c(CCNCc2ccccc2OC)cc1OC` [Compd 7, 2-(4-ethyl-2,5-dimethoxyphenyl)-N-(2-methoxybenzyl)ethan-1-amine], for which the affinity, expressed as Ki, was 1.52 nM.

Consider `CCN(CC)CCc1c[nH]c2cccc(OC(C)=O)c12` [Compd 18, 4-Acetoxy-N,N-diethyltryptamine], for which the affinity corresponds to a Ki of 595 nM.

Regarding `COc1cc(CCNCc2ccccc2OC)c(OC)cc1Cl` [Compd 8, 2-(4-chloro-2,5-dimethoxyphenyl)-N-(2-methoxybenzyl)ethanamine], the Ki (in general, a measure of affinity in units of concentration, obtained from inhibition or displacement) came out at 0.817 nM.

On to `COc1cc(CCNCc2ccccc2F)c(OC)cc1Br` [Compd 12, 4-bromo-N-[(2-fluorophenyl)methyl]-2,5-dimethoxy-benzeneethanamine], for which the Ki was found to be 3.63 nM.

In the case of `C=CCN(CC=C)CCc1c[nH]c2ccc(OC)cc12` [Compd 25, N-allyl-N-[2-(5-methoxy-1H-indol-3-yl)ethyl] prop-2-en-1-amine], the affinity corresponds to a Ki of 258 nM.

For `COc1cc([N+](=O)[O-])c(OC)cc1CCN` [Compd 2, 2,5-Dimethoxy-4-nitrophenethylamine], the Ki was found to be 25.2 nM. Compared with the last molecule, the Ki is about 10-fold lower.

Turning to `COc1cc(CCNCc2ccccc2OC)c(OC)cc1C` [Compd 6, 2-(2,5-dimethoxy-4-methylphenyl)-N-(2-methoxybenzyl)ethanamine], the Ki amounted to 2.88 nM.

Source of the values: publication PMC9970836 (Biomolecules & Therapeutics, 2022).
